The values below come from patent publication US7846959B2, “Raf modulators and methods of use” (Exelixis, Inc., priority 2004, dated 2010).

For one test, the target named is c-Raf (Homo sapiens, UniProt P04049). Put plainly: Luciferase-coupled chemiluminescence kinase assay (ATP consumption), c-Raf. It is filed as biochemical. To be noted: read-out: cRaf-1 IC50. The procedure, abridged: (§1)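 Pre-incub. kinase […] + cpd, 30 min RT (20 mM Tris pH 7.5, 10 mM MgCl2, 0.03% TX-100, 1 mM DTT). Start w/ ATP, 3 h ambient. Luciferase-luciferin mix added and luminescence read. Total ATP use 25-60%. IC50 derived.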

For the next test, the target named is B-Raf (Homo sapiens, UniProt P15056). The test can be described thus: Luciferase-coupled chemiluminescence kinase assay (ATP consumption), B-Raf. To be noted: read-out: bRaf IC50. It is filed as biochemical. The procedure, abridged: as §1
Chain of B-Raf (P15056 whole entry): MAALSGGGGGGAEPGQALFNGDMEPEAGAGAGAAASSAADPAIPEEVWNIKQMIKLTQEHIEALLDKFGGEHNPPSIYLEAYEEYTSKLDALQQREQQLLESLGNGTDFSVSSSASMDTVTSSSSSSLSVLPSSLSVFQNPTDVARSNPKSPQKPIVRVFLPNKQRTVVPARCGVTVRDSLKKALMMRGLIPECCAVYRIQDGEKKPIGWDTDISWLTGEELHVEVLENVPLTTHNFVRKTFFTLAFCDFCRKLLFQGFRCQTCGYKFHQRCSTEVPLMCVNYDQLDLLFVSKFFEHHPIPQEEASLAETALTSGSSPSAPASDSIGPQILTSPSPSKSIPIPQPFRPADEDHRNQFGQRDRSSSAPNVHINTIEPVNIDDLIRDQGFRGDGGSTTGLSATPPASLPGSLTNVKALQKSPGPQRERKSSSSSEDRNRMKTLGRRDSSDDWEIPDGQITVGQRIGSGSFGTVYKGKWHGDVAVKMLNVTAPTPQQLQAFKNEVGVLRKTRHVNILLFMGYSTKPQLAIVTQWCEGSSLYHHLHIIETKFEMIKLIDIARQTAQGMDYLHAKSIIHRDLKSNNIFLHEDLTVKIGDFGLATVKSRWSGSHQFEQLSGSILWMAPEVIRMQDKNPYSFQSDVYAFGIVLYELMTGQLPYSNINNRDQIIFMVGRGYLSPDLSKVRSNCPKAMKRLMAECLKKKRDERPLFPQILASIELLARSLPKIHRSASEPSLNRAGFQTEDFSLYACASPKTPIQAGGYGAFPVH

Chain of c-Raf (P04049 whole entry): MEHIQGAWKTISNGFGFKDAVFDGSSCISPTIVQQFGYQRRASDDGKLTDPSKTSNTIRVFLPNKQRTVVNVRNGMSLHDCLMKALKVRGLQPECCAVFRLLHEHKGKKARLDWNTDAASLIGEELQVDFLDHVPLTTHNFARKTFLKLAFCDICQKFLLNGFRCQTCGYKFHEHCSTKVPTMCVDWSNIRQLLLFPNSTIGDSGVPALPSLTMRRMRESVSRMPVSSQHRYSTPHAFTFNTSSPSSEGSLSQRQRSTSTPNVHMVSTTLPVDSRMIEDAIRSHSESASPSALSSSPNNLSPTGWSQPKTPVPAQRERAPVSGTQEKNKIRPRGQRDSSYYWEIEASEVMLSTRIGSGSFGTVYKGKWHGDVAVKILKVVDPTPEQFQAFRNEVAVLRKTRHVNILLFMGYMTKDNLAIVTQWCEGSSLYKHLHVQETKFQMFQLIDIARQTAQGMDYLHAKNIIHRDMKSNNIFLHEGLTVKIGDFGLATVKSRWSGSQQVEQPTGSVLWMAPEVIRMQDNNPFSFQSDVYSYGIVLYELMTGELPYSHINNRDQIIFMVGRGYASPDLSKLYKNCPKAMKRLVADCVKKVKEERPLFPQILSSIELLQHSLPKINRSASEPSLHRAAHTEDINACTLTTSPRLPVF

The IC50 is the concentration that gives 50% inhibition. Consider `CN(C)C(=O)Nc1nc2cc(C3(O)c4ccccc4C(=O)N3Cc3ccccc3)ccc2[nH]1` (stereo not shown) [Entry 158, N′-{5-[1-hydroxy-3-oxo-2-(phenylmethyl)-2,3-dihydro-1H-isoindol-1-yl]-1H-benzimidazol-2-yl}-N,N-dimethylurea], for which the IC50 at c-Raf and on B-Raf was less than 0.1 µM each time.
Consider `COC(=O)Nc1nc2cc(C3(O)c4ccccc4C(=O)N3c3cccc(OCCN(C)C)c3)ccc2[nH]1` (stereo not shown) [Entry 159, methyl {5-[2-(3-{[2-(dimethylamino)ethyl]oxy}phenyl)-1-hydroxy-3-oxo-2,3-dihydro-1H-isoindol-1-yl]-1H-benzimidazol-2-yl}carbamate], for which the half-inhibitory concentration (IC50) is 0.1 to 1 µM at c-Raf and 1 to 10 µM at B-Raf.
`CN1CCN(CCCOC(=O)Nc2nc3ccc(C4(O)c5ccccc5C(=O)N4Cc4ccccc4)cc3[nH]2)CC1` (stereo not shown) [Entry 160, 3-(4-methylpiperazin-1-yl)propyl {6-[1-hydroxy-3-oxo-2-(phenylmethyl)-2,3-dihydro-1H-isoindol-1-yl]-1H-benzimidazol-2-yl}carbamate]: the IC50 on c-Raf and at B-Raf was less than 0.1 µM in each case.
Consider `COC(=O)Nc1nc2cc(C3(O)c4ccccc4C(=O)N3CC3CCCCC3)ccc2[nH]1` (stereo not shown) [Entry 161, methyl {5-[2-(cyclohexylmethyl)-1-hydroxy-3-oxo-2,3-dihydro-1H-isoindol-1-yl]-1H-benzimidazol-2-yl}carbamate], for which the 50% inhibitory concentration (IC50) on c-Raf and on B-Raf was less than 0.1 µM each time.
Regarding `COC(=O)Nc1nc2cc(C3(O)c4ccccc4C(=O)N3CC(C)C)ccc2[nH]1` (stereo not shown) [Entry 162, methyl {5-[1-hydroxy-2-(2-methylpropyl)-3-oxo-2,3-dihydro-1H-isoindol-1-yl]-1H-benzimidazol-2-yl}carbamate], the half-maximal inhibitory concentration (IC50) on c-Raf and at B-Raf was 0.1 to 1 µM each time.
On to `COC(=O)Nc1nc2cc(C3(O)c4ccccc4C(=O)N3Cc3nccs3)ccc2[nH]1` (stereo not shown) [Entry 163, methyl {5-[1-hydroxy-3-oxo-2-(1,3-thiazol-2-ylmethyl)-2,3-dihydro-1H-isoindol-1-yl]-1H-benzimidazol-2-yl}carbamate], for which the concentration for half-maximal inhibition (IC50) at c-Raf and at B-Raf was 0.1 to 1 µM in each case.
In the case of `COC(=O)Nc1nc2cc(C3(O)c4ccccc4C(=O)N3c3ccc(F)c(F)c3)ccc2[nH]1` (stereo not shown) [Entry 164, methyl {5-[2-(3,4-difluorophenyl)-1-hydroxy-3-oxo-2,3-dihydro-1H-isoindol-1-yl]-1H-benzimidazol-2-yl}carbamate], the half-maximal inhibitory concentration (IC50) at c-Raf and at B-Raf was less than 0.1 µM in each case.
Turning to `COC(=O)Nc1nc2cc(C3(O)c4ccccc4C(=O)N3C(C)c3cc(F)cc(F)c3)ccc2[nH]1` (stereo not shown) [Entry 165, methyl (5-{2-[1-(3,5-difluorophenyl)ethyl]-1-hydroxy-3-oxo-2,3-dihydro-1H-isoindol-1-yl}-1H-benzimidazol-2-yl)carbamate], the IC50 lay in the range of 0.1 to 1 µM at c-Raf and 1 to 10 µM at B-Raf.
For the compound `COC(=O)Nc1nc2cc(C3(O)c4ccccc4C(=O)N3C(C)c3cccc(F)c3)ccc2[nH]1` (stereo not shown) [Entry 166, methyl (5-{2-[1-(3-fluorophenyl)ethyl]-1-hydroxy-3-oxo-2,3-dihydro-1H-isoindol-1-yl}-1H-benzimidazol-2-yl)carbamate], the IC50 on c-Raf was 0.1 to 1 µM; at B-Raf, less than 0.1 µM.
Turning to `COC(=O)Nc1nc2cc(C3(O)c4ccccc4C(=O)N3C3CCCCC3)ccc2[nH]1` (stereo not shown) [Entry 167, methyl [5-(2-cyclohexyl-1-hydroxy-3-oxo-2,3-dihydro-1H-isoindol-1-yl)-1H-benzimidazol-2-yl]carbamate], the IC50 at c-Raf and on B-Raf was less than 0.1 µM throughout.
On to `COC(=O)Nc1nc2cc(C3(O)c4ccccc4C(=O)N3c3cc(F)ccc3F)ccc2[nH]1` (stereo not shown) [Entry 168, methyl {5-[2-(2,5-difluorophenyl)-1-hydroxy-3-oxo-2,3-dihydro-1H-isoindol-1-yl]-1H-benzimidazol-2-yl}carbamate], for which the concentration for half-maximal inhibition (IC50) on c-Raf and at B-Raf was less than 0.1 µM throughout.
With `O=C(NCc1ccccc1)Nc1nc2cc(C3(O)c4ccccc4C(=O)N3Cc3ccccc3)ccc2[nH]1` (stereo not shown) [Entry 169, N-{5-[1-hydroxy-3-oxo-2-(phenylmethyl)-2,3-dihydro-1H-isoindol-1-yl]-1H-benzimidazol-2-yl}-N′-(phenylmethyl)urea], the half-inhibitory concentration (IC50) on c-Raf and at B-Raf was less than 0.1 µM throughout.
As for `O=C(Nc1nc2cc(C3(O)c4ccccc4C(=O)N3Cc3ccccc3)ccc2[nH]1)OC1CCNCC1` (stereo not shown) [Entry 170, piperidin-4-yl {5-[1-hydroxy-3-oxo-2-(phenylmethyl)-2,3-dihydro-1H-isoindol-1-yl]-1H-benzimidazol-2-yl}carbamate], the IC50 at c-Raf and at B-Raf was less than 0.1 µM each time.
As to `CNC(=O)Nc1nc2cc(C3(O)c4ccccc4C(=O)N3Cc3ccccc3)ccc2[nH]1` (stereo not shown) [Entry 171, N-{5-[1-hydroxy-3-oxo-2-(phenylmethyl)-2,3-dihydro-1H-isoindol-1-yl]-1H-benzimidazol-2-yl}-N′-methylurea], the 50% inhibitory concentration (IC50) at c-Raf and at B-Raf was less than 0.1 µM throughout.
Regarding `COC(=O)Nc1nc2cc(C3(O)c4ccccc4C(=O)N3C(C)c3ccccc3F)ccc2[nH]1` (stereo not shown) [Entry 172, methyl (5-{2-[1-(2-fluorophenyl)ethyl]-1-hydroxy-3-oxo-2,3-dihydro-1H-isoindol-1-yl}-1H-benzimidazol-2-yl)carbamate], the IC50 on c-Raf and at B-Raf was 1 to 10 µM throughout.
As for `COC(=O)Nc1nc2cc(C3(O)c4ccccc4C(=O)N3C(C)c3cccs3)ccc2[nH]1` (stereo not shown) [Entry 173, methyl (5-{1-hydroxy-3-oxo-2-[1-(2-thienyl)ethyl]-2,3-dihydro-1H-isoindol-1-yl}-1H-benzimidazol-2-yl)carbamate], the IC50 at c-Raf and at B-Raf was less than 0.1 µM each time.
For `COC(=O)Nc1nc2cc(C3(O)c4ccccc4C(=O)N3C(C)c3cccc(Cl)c3)ccc2[nH]1` (stereo not shown) [Entry 174, methyl (5-{2-[1-(3-chlorophenyl)ethyl]-1-hydroxy-3-oxo-2,3-dihydro-1H-isoindol-1-yl}-1H-benzimidazol-2-yl)carbamate], the 50% inhibitory concentration (IC50) is 0.1 to 1 µM at c-Raf and less than 0.1 µM on B-Raf.
The matching figures for `COC(=O)Nc1nc2cc(C3(O)c4ccccc4C(=O)N3c3cc(C)cc(C(F)(F)F)c3)ccc2[nH]1` (stereo not shown) [Entry 175, methyl (5-{1-hydroxy-2-[3-methyl-5-(trifluoromethyl)phenyl]-3-oxo-2,3-dihydro-1H-isoindol-1-yl}-1H-benzimidazol-2-yl)carbamate]: less than 0.1 µM and less than 0.1 µM.
Turning to `CCC(=O)Nc1nc2cc(C3(O)c4ccccc4C(=O)N3Cc3ccccc3)ccc2[nH]1` (stereo not shown) [Entry 176, N-{5-[1-hydroxy-3-oxo-2-(phenylmethyl)-2,3-dihydro-1H-isoindol-1-yl]-1H-benzimidazol-2-yl}propanamide], the half-inhibitory concentration (IC50) at c-Raf and at B-Raf was less than 0.1 µM each time.
For the compound `COC(=O)Nc1nc2cc(C3(O)c4ccccc4C(=O)N3c3ccc(Cl)c(Cl)c3)ccc2[nH]1` (stereo not shown) [Entry 177, methyl {5-[2-(3,4-dichlorophenyl)-1-hydroxy-3-oxo-2,3-dihydro-1H-isoindol-1-yl]-1H-benzimidazol-2-yl}carbamate], the IC50 at c-Raf and on B-Raf was less than 0.1 µM each time.
